Measured values reported in patent US20150072933A1, “NOVEL SEQUENCES FOR THE CONTROL OF REPRODUCTION IN FISH” (Yissum Research Development Company of the Hebrew …, priority 2011, published 2015).
Entries after “also recorded” stand apart in the source; their conditions may differ. Where a SMILES comes first, the peptide text is derived from it.

Legend:
[1] = system: zfTac3ra; assay: Receptor transactivation assay, CRE-Luc reporter (PKA activation), COS-7 cells expressing zfTac3ra; type: cell-based, zebrafish; settings: mean ± SEM
Procedure, shortened: (§1)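 COS-7 cells were cotransfected with zebrafish tac3ra or tac3rb (or human NK3R), an SRE-Luc (PKC) or CRE-Luc (PKA) reporter and β-galactosidase. After 36 h serum starvation, cells were stimulated with vehicle or various concentrations of human or zebrafish NKBs or analogs for 6 h. Luciferase was normalized to β-galactosidase; triplicates, three independent sets.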

[2] = system: zfTac3rb; assay: Receptor transactivation assay, CRE-Luc reporter (PKA activation), COS-7 cells expressing zfTac3rb; type: cell-based, zebrafish; settings: mean ± SEM
Procedure, shortened: as §1

[3] = biological target: T1, huNK3R (Homo sapiens, UniProt P29371); assay: Receptor transactivation assay, CRE-Luc reporter (PKA activation), COS-7 cells expressing human NK3R; type: cell-based; settings: Table 5, CRE-Luc follows PKA activation, mean ± SEM
T1 construct: host or cells: COS-7
T1 sequence (P29371 1-465): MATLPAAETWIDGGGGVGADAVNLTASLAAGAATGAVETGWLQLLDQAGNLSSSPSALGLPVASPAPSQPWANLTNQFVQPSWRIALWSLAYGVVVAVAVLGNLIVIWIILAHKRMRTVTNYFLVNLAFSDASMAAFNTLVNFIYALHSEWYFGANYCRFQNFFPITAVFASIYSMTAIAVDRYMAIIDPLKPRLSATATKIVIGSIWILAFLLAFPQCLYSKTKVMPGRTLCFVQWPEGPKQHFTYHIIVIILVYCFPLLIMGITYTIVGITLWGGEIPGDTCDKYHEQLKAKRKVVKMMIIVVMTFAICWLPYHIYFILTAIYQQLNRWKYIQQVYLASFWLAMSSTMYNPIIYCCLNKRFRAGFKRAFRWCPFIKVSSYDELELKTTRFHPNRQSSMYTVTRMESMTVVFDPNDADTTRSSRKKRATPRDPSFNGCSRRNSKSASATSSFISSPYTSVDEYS
Experimental: In order to study the signaling pathways of the novel zebrafish NKBs, the entire coding regions of zftac3ra (denoted by SEQ ID NO:6) or zftac3rb (denoted by SEQ ID NO:7), or the cDNA clone for human NK3R (obtained from the Missouri S&T cDNA Resource Center, were inserted into pcDNA3.1 (Invitrogen). The luciferase assay was conducted according to Biran et al., 2008 [4] COS-7 cells were grown in DMEM supplemented with 10% FBS, 1% glutamine, 100 U/ml penicillin, and 100 mg/ml streptomycin (Biological Industries) under 5% CO2 until confluent. Cotransfection of either pc-zftac3ra, pc-zftac3rb or pc-Htac3r (at 3 μg/plate), a reporter plasmid (at 2 μg/plate), and pCMV-β-galactosidase (at 1 μg/plate) was carried out with FuGENE 6.0 reagent (Roche). The cells were serum starved for 36 h, stimulated with vehicle or various concentrations of either human (Sigma) or zebrafish NKBs for 6 h, and then harvested and analyzed. Lysates prepared from the harvested cells were assayed for both luciferase activity and β-galactosidase activity, which was used as an internal standard to normalize the luciferase activity directed by the test plasmid. […]
The response, binding selectivity and signal transduction pathways of the novel tachykinin receptors to their agonists were evaluated by functional expression analysis, using COS-7 cells. […]

[4] = system: zfTac3ra; assay: Receptor transactivation assay, SRE-Luc reporter (PKC activation), COS-7 cells expressing zfTac3ra; type: cell-based, zebrafish; settings: mean ± SEM
Procedure, shortened: as §1

[5] = system: zfTac3rb; assay: Receptor transactivation assay, SRE-Luc reporter (PKC activation), COS-7 cells expressing zfTac3rb; type: cell-based, zebrafish; settings: mean ± SEM
Procedure, shortened: as §1

[6] = biological target: T1, huNK3R; assay: Receptor transactivation assay, SRE-Luc reporter (PKC activation), COS-7 cells expressing human NK3R; type: cell-based
Experimental: In order to study the signaling pathways of the novel zebrafish NKBs, the entire coding regions of zftac3ra (denoted by SEQ ID NO:6) or zftac3rb (denoted by SEQ ID NO:7), or the cDNA clone for human NK3R (obtained from the Missouri S&T cDNA Resource Center, were inserted into pcDNA3.1 (Invitrogen). The luciferase assay was conducted according to Biran et al., 2008 [4] COS-7 cells were grown in DMEM supplemented with 10% FBS, 1% glutamine, 100 U/ml penicillin, and 100 mg/ml streptomycin (Biological Industries) under 5% CO2 until confluent. Cotransfection of either pc-zftac3ra, pc-zftac3rb or pc-Htac3r (at 3 μg/plate), a reporter plasmid (at 2 μg/plate), and pCMV-β-galactosidase (at 1 μg/plate) was carried out with FuGENE 6.0 reagent (Roche). The cells were serum starved for 36 h, stimulated with vehicle or various concentrations of either human (Sigma) or zebrafish NKBs for 6 h, and then harvested and analyzed. Lysates prepared from the harvested cells were assayed for both luciferase activity and β-galactosidase activity, which was used as an internal standard to normalize the luciferase activity directed by the test plasmid. Transfection experiments were performed in triplicate with three independently isolated sets.
To validate the specificity of the serum-responsive element (SRE)-Luc and cAMP-responsive element (CRE)-Luc reporter systems, specific activators for PLC/PKC and AC/PKA signaling pathways were used in control experiments.

[7] = biological target: T2, NKB receptors (human NKBR, zebrafish Tac3ra, Tac3rb) (Homo sapiens, UniProt P29371); assay: Receptor transactivation assay, statements in words across SRE-Luc and CRE-Luc reporters and receptors; type: cell-based; settings: human NKBR (huNK3R), in both signal transduction systems (SRE-Luc and CRE-Luc)
T2 construct: expressed in transfected cells; host or cells: COS-7
T2 sequence (P29371 1-465): T1 sequence (P29371 1-465)
Experimental: (§2) In order to study the signaling pathways of the novel zebrafish NKBs, the entire coding regions of zftac3ra (denoted by SEQ ID NO:6) or zftac3rb (denoted by SEQ ID NO:7), or the cDNA clone for human NK3R (obtained from the Missouri S&T cDNA Resource Center, were inserted into pcDNA3.1 (Invitrogen). The luciferase assay was conducted according to Biran et al., 2008 [4] COS-7 cells were grown in DMEM supplemented with 10% FBS, 1% glutamine, 100 U/ml penicillin, and […] streptomycin (Biological Industries) under 5% CO2 until confluent. Cotransfection of either pc-zftac3ra, pc-zftac3rb or pc-Htac3r (at 3 μg/plate), a reporter plasmid (at 2 μg/plate), and pCMV-β-galactosidase (at 1 μg/plate) was carried out with FuGENE 6.0 reagent (Roche). The cells were serum starved for 36 h, stimulated with vehicle or various concentrations of either human (Sigma) or zebrafish NKBs for 6 h, and then harvested and analyzed. Lysates prepared from the harvested cells were assayed for both luciferase activity and β-galactosidase activity, which was used as an internal standard to normalize the luciferase activity directed by the test plasmid. Transfection experiments were performed in triplicate with three independently isolated sets. Protein structure prediction of zebrafish NKBa, NKBb or NKF were performed on I-Tasser servers.
(§3) The response, binding selectivity and signal transduction pathways of the novel tachykinin receptors to their agonists were evaluated by functional expression analysis, using COS-7 cells.
(§4) Thus, the ability of the three novel piscine peptides (namely, NKBa, NKBb and NKF, denoted by SEQ ID NO.40, 41 and 42), as well as the ability of the three analogous agonistic peptides, namely, NKBa-analog, NKBb-analog and NKF-analog, to differentially activate the different tac3 receptors, using SRE as a reporter gene that follows PKC activation and CRE as a reporter gene for the PKA pathway, was tested. Human NK3R (human NKB receptor) and human NKB served as controls.

[8] = system: NKB receptors (human NKBR, zebrafish Tac3ra, Tac3rb); assay: as above; type: cell-based; settings: both zebrafish tac3 receptors, in both signal transduction systems
Experimental: as §2, §3, §4

[9] = system: sexually mature female zebrafish; assay: In vivo effect of NKBs in zebrafish: LH secretion after intraperitoneal injection; settings: single intraperitoneal injection
Experimental: In vivo studies involved administering NKBa, NKBb or NKF and the analogues thereof, denoted by SEQ ID NO. 40-42 and 44-46, respectively to immature fish (20 fish/treatment). The circulating levels of E2, 11KT, LH and FSH were determined prior to hormonal manipulations, in order to confirm that these fish were indeed sexually immature. The fish were injected intramuscularly (i.m.) or intraperitonealy (i.p.) at various doses. Adult female zebra fish were injected intraperitoneally with 20 pmol/g body weight. Control fish were injected with saline. Plasma samples were collected at time 0, and specific times after the administration of the peptide/s, to determine the levels of E2, 11KT, LH and FSH.
To further characterize the role of the NKB/NKBR system in fish reproduction the in vivo biological function of zebrafish NKB peptides was next examined.

Structure (SMILES): CC[C@H](C)[C@H](NC(=O)[C@H](CC(=O)O)NC(=O)[C@H](CC(N)=O)NC(=O)[C@@H](N)Cc1ccc(O)cc1)C(=O)N[C@@H](CC(=O)O)C(=O)N[C@@H](Cc1ccc(O)cc1)C(=O)N[C@@H](CC(=O)O)C(=O)N[C@@H](CO)C(=O)N[C@@H](Cc1ccccc1)C(=O)N[C@H](C(=O)NCC(=O)N[C@@H](CC(C)C)C(=O)N[C@@H](CCSC)C(N)=O)C(C)C [zfNKF] (H-YNDIDYDSFVGLM-NH2)
- EC50 ([1]; Table 5, COS-7 cells, CRE-Luc follows PKA activation, read-out: EC50 CRE-Luc zfTac3ra): 4.94 ± 1.83 nM
- EC50 ([1]; Table 6 (native peptides and analogues), PKA activation, read-out: EC50 using CRE-Luc, zfTac3ra): 4.94 ± 1.83 nM
- EC50 ([2]; Table 5, COS-7 cells, CRE-Luc follows PKA activation, read-out: EC50 CRE-Luc zfTac3rb): 1.8 ± 1.55 nM
- EC50 ([2]; Table 6 (native peptides and analogues), PKA activation, read-out: EC50 using CRE-Luc, zfTac3rb): 1.8 nM
- EC50 [3]: 4.36 ± 1.25 nM
- EC50 ([4]; Table 5, COS-7 cells, SRE-Luc follows PKC activation, read-out: EC50 SRE-Luc zfTac3ra): 0.54 ± 0.13 nM
- EC50 ([4]; Table 7 (native peptides and analogues), PKC activation, read-out: EC50 using SRE, zfTac3ra): 0.55 nM
- EC50 ([5]; Table 5, COS-7 cells, SRE-Luc follows PKC activation, read-out: EC50 SRE-Luc zfTac3rb): 0.36 ± 0.16 nM
- EC50 ([5]; Table 7 (native peptides and analogues), PKC activation, read-out: EC50 using SRE, zfTac3rb): 0.37 ± 0.16 nM
- SRE-driven luciferase activity, response ([6]; COS-7 cells transiently transfected with human NK3R): elicited an increased response
- EC50 ([6]; Table 5, COS-7 cells, SRE-Luc follows PKC activation, mean ± SEM): 0.52 ± 0.18 nM
- potency [7]: high potency
- potency [8]: most potent among all tachykinins examined
- LH secretion ([9]; 20 pmol/g body weight, sexually mature female zebrafish): significant increase; also recorded: significant LH secretion
- magnitude of the induced LH discharge ([9]; compared with GnRH): comparable with that observed in response to GnRH
